# Measured values reported in US8697721B2, “Chromen-2-one derivatives and their use as monoamine neurotransmitter re-uptake inhibitors” (Aniona APS, priority 2009, dated 2014).
# Counter-ions that a name gives are not always drawn.
# Legend:
# Assay type in all cases: biochemical
# [1] = target: T1, serotonine (5-HT) reuptake in synaptosomes (Rattus norvegicus, UniProt P31652); assay: In vitro inhibition of 3H-5-HT reuptake in synaptosomes; details: mean ± spread (n), read-out: 5-HT-uptake IC50
# T1 construct: in synaptosomes as described in WO 97/16451; from tissue
# Experimental: (§1) The compound was tested for its ability to inhibit the reuptake of the monoamine neurotransmitters dopamine (DA) noradrenaline (NA) and serotonine (5-HT) in synaptosomes as described in WO 97/16451.
# (§2) The test values are given as IC50 (the concentration (μM) of the test substance which inhibits the specific binding of ^3H-DA, ^3H-NA, or ^3H-5-HT by 50%).
# [2] = target: T2, dopamine (DA) reuptake in synaptosomes (Rattus norvegicus, UniProt P23977); assay: In vitro inhibition of 3H-DA reuptake in synaptosomes; details: mean ± spread (n), read-out: DA-uptake IC50
# T2 construct: in synaptosomes as described in WO 97/16451; from tissue
# Experimental: as §1, §2
# [3] = target: T3, noradrenaline (NA) reuptake in synaptosomes (Rattus norvegicus, UniProt Q63380); assay: In vitro inhibition of 3H-NA reuptake in synaptosomes; details: mean ± spread (n), read-out: NA-uptake IC50
# T3 construct: in synaptosomes as described in WO 97/16451; from tissue
# Experimental: as §1, §2
# T1 sequence (P31652 whole entry): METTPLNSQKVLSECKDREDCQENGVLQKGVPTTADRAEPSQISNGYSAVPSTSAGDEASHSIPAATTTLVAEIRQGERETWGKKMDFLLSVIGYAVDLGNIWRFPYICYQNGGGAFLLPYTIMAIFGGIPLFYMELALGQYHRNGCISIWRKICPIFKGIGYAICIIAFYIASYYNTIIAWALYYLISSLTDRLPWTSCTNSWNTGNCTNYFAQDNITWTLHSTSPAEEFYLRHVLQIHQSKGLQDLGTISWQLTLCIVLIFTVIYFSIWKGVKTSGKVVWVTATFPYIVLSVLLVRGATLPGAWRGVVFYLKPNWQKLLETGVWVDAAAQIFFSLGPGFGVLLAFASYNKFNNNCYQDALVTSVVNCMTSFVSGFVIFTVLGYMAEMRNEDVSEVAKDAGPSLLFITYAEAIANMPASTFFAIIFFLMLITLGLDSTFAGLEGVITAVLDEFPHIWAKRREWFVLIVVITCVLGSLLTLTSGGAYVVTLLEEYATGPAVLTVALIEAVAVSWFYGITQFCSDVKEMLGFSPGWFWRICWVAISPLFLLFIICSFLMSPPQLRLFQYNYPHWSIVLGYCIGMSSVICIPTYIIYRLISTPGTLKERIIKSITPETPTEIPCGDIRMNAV
# T3 sequence (Q63380 1-617): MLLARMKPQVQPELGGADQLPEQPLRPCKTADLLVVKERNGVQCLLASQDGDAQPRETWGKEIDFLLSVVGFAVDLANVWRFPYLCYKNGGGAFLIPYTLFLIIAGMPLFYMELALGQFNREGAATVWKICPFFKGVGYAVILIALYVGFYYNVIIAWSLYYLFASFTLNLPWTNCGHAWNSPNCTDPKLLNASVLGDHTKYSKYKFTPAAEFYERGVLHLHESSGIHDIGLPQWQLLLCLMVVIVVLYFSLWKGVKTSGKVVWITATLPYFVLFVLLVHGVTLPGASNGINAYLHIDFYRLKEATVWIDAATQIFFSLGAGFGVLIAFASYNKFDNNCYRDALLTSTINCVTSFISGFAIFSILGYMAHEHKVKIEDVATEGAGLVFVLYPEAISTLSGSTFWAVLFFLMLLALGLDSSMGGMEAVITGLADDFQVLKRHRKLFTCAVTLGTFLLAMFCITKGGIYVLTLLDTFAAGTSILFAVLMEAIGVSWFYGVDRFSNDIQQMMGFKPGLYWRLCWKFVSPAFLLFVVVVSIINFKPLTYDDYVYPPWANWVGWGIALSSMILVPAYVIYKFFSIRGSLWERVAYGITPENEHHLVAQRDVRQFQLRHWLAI
# T2 sequence (P23977 whole entry): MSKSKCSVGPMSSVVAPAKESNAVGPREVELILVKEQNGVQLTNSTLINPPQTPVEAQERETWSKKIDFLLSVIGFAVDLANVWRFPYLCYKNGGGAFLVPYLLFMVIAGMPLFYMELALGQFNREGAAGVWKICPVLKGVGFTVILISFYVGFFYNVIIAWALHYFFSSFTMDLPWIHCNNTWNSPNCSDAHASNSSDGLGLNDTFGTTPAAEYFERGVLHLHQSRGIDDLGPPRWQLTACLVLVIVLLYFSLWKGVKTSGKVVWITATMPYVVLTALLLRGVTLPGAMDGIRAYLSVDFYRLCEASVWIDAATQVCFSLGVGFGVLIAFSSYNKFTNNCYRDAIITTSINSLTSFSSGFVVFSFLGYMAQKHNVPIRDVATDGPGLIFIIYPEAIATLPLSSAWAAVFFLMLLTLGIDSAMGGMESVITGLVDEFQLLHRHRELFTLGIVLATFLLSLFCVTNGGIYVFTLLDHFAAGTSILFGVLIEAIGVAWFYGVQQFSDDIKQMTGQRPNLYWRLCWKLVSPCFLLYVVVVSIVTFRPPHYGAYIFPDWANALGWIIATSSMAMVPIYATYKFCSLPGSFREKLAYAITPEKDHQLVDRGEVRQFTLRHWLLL
compound,measurement,setting,value
"Cc1cc2ccc(O[C@@H]3C[C@H]4CC[C@@H](C3)N4)cc2oc1=O [Compound 1.1, exo-7-[(8-Aza-bicyclo[3.2.1]oct-3-yl)oxy]-3-methyl-chromen-2-one hydrochloric Acid Salt]",IC50,[1],0.76 nM
same,IC50,[2],170 ± 21 nM
same,IC50,[3],11 ± 6.1 nM
